Results from patent publication US20230265116A1, “DEGRADATION OF (EGFR) BY CONJUGATION OF EGFR INHIBITORS WITH E3 LIGASE LIGAND AND METHODS OF USE” (BEIGENE, LTD., priority 2020, published 2023).

Key:
[1] = target: T1, EGFR L858R/T790M/C797S (BaF3-LTC cells) (Homo sapiens, UniProt P00533, C797S/L858R/T790M); test: EGFR degradation HTRF assay, BaF3-LTC cells; format: cell-based; conditions: BaF3-LTC cells; for DC50: EGFR degradation, IC50 (DC50) from curve fit, read-out: DC50(nM) BaF3-LTC; for Dmax: maximum percentage of inhibition (degradation), read-out: Dmax (%) BaF3-LTC
T1 construct: expressed in transfected cells; host or cells: BaF3
T1 sequence (P00533 25-1210 T790M/C797S/L858R): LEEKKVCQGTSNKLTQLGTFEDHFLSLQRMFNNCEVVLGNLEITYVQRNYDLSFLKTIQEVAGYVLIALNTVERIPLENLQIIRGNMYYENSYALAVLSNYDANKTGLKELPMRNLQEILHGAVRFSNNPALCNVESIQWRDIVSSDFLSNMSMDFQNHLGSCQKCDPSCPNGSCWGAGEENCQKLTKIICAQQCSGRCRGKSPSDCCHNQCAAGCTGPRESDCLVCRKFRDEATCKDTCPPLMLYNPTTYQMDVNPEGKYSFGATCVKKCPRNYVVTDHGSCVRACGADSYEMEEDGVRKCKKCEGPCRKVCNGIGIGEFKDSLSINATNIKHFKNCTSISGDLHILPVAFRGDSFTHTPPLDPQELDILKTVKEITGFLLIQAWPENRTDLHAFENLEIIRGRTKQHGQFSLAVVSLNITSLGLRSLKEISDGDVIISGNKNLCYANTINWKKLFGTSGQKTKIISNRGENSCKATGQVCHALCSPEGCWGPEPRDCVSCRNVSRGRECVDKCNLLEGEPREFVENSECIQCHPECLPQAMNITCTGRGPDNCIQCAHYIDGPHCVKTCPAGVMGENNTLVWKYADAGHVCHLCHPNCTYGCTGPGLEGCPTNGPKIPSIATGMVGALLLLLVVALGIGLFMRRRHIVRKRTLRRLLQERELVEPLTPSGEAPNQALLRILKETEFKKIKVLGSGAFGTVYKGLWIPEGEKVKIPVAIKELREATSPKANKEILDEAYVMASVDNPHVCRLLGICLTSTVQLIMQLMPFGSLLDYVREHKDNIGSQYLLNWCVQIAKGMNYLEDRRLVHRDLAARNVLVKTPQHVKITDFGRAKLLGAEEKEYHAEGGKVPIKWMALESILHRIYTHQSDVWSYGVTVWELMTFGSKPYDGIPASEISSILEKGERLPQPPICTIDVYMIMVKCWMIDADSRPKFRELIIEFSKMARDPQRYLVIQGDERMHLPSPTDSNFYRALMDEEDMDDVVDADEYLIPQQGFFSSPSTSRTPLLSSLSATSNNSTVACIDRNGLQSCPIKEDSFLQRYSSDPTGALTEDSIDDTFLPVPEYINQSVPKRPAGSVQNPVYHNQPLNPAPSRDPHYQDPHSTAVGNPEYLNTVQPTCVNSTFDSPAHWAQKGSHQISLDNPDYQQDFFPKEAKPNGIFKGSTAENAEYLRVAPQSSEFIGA
Protocol: (§1) BaF3 WT(wild type), BaF3-LTC(L858R/T790M/C797S) and BaF3-DTC(Del19/T790M/C797S) cells are treated with compounds diluted in 0.2% DMSO cell culture medium and incubate for 16h, 37° C., 5% CO2, H1975-#36, H1975-#28, H1975-#23 and HCC827 cells are treated with compounds diluted in 0.2% DMSO cell culture medium on day 2, incubate for 16h, 37° C., 5% CO2.the final concentriation of compounds in all assay is start with 10 uM, 5-fold dilution, total 8 doses were included.
(§2) After 16h treatment, add HTRF lysis buffer to each well; seal the plate and incubate 1 hour at room temperature on a plate shaker; Once the cells are lysed, 16 μL of cell lysate are transferred to a PE 384-well HTRF detection plate; 4 μL of pre-mixed HTRF antibodies are added to each well; Cover the plate with a plate sealer, spin 1000 rpm for 1 min, Incubate overnight at room temperature; Read on BMG PheraStar with HTRF protocol (337 nm-665 nm-620 nm).
(§3) The inhibition (degradation) percentage of the compound was calculated by the following equation: Inhibition percentage of Compound=100-100×(Signal-low control)/(High control-low control), wherein signal=each test compound group
(§4) High control=Cell group with added DMSO and without compound, indicating microplate readings without EGFR degradation;
(§5) Dmax is the maximum percentage of inhibition (degradation).
(§6) The IC50 (DC50) value of a compound can be obtained by fitting the following equation
(§7) Y=Bottom+(TOP−Bottom)/(1+((IC50/X)^hillslope))
(§8) Wherein, X and Y are known values, and IC50, Hillslope, Top and Bottom are the parameters obtained by fitting with software. Y is the inhibition percentage (calculated from the equation), X is the concentration of the compound; IC50 is the concentration of the compound when the 50% inhibition is reached. The smaller the IC50 value is, the stronger the inhibitory ability of the compound is. Vice versa, the higher the IC50 value is, the weaker the inhibitory ability of the compound is; Hillslope represents the slope of the fitted curve, generally around 1*; Bottom represents the minimum value of the curve obtained by data fitting, which is generally 0%±20%; Top represents the maximum value of the curve obtained by data fitting, which is generally 100%±20%. The experimental data were fitted by calculating and analyzing with Dotmatics data analysis software.

[2] = system: EGFR Del19/T790M/C797S (H1975-clone #28); test: EGFR degradation HTRF assay, H1975-clone #28 DTC cells; format: cell-based; conditions: H1975 # 28 DTC cells; for DC50: EGFR degradation, IC50 (DC50) from curve fit, read-out: DC50(nM) H1975 # 28 DTC; for Dmax (%) H1975 # 28 DTC: maximum percentage of inhibition (degradation)
Protocol: H1975-clone #28(Del19/T790M/C797S) and H1975-clone #23(Del19/C797S). EGFR-Del19/T790M/C797S and EGFR-Del19/C797S were stably expressed in H1975 cell lines by lentivirus-mediated over-expression, respectively. The EGFR over-expressed cells then underwent gene knockout, in which the EGFR targeting sgRNA was designed to only target the endogenous EGFR copies and preserve the exogenous EGFR copies. Followed by the gene knockout, the edited H1975 cells were seeded in 96 well plates at the concentration of 1 cell/well, cultured for about 2 weeks to allow single clones formation. The formed clones were screened by DNA sequencing and whole exon sequencing analysis for the desired edition. H1975-clone #28 and H1975-clone #23 were finally confirmed as homozygous Del19/T790M/C797S EGFR and Del19/C797S EGFR clones, respectively.
as §1, §2, §3, §4, §5, §6, §7, §8

| DC50 [1] | Dmax [1] | DC50 [2] | SMILES | Dmax (%) H1975 # 28 DTC [2] |
| --- | --- | --- | --- | --- |
| 4.89 nM | 96.6% | 1.76 nM | CCc1cc(Nc2ncc(Br)c(Nc3ccc4c(c3P(C)(C)=O)OCCO4)n2)c(OC)cc1N1CCC(N2CCN(C(=O)[C@@H]3CCN(c4cc(F)c([C@H]5CCC(=O)NC5=O)c(F)c4)C3)CC2)CC1 [Example 686, (R)-3-(4-((R)-3-(4-(1-(4-((5-bromo-4-((5-(dimethylphosphoryl)-2,3-dihydrobenzo[b][1,4]dioxin-6-yl)amino)pyrimidin-2-yl)amino)-2-ethyl-5-methoxyphenyl)piperidin-4-yl)piperazine-1-carbonyl)pyrrolidin-1-yl)-2,6-difluorophenyl)piperidine-2,6-dione] | 88.73% |
| 89.9 nM |  | 7.25 nM | CCOc1cc(N2CCC(N3CCN(CCc4cc(F)c([C@H]5CCC(=O)NC5=O)c(F)c4)CC3)CC2)c(CC)cc1Nc1ncc(C)c(Nc2cc(F)c3nc(CC)ccc3c2P(C)(C)=O)n1 [Example 733, (R)-3-(4-(2-(4-(1-(4-((4-((5-(dimethylphosphoryl)-2-ethyl-8-fluoroquinolin-6-yl)amino)-5-methylpyrimidin-2-yl)amino)-5-ethoxy-2-ethylphenyl)piperidin-4-yl)piperazin-1-yl)ethyl)-2,6-difluorophenyl)piperidine-2,6-dione] | 84.52% |
| 3.72 nM |  | 0.944 nM | CCOc1cc(N2CCC(N3CCN(CCc4cccc5c4n(CC)c(=O)n5C4CCC(=O)NC4=O)CC3)CC2)c(CC)cc1Nc1ncc(Br)c(Nc2ccc3nc(CC)ncc3c2P(C)(C)=O)n1 (stereo not shown) [Example 737, 3-(4-(2-(4-(1-(4-((5-bromo-4-((5-(dimethylphosphoryl)-2-ethylquinazolin-6-yl)amino)pyrimidin-2-yl)amino)-5-ethoxy-2-ethylphenyl)piperidin-4-yl)piperazin-1-yl)ethyl)-3-ethyl-2-oxo-2,3-dihydro-1H-benzo[d]imidazol-1-yl)piperidine-2,6-dione] | 78.21% |
| 17 nM | 85.5% | 0.818 nM | CCOc1cc(N2CCC(N3CCN(CCc4ccc(F)c5c4n(CC)c(=O)n5C4CCC(=O)NC4=O)CC3)CC2)c(CC)cc1Nc1ncc(Br)c(Nc2ccc3c(=O)n(CC)ncc3c2P(C)(C)=O)n1 (stereo not shown) [Example 594, 3-(4-(2-(4-(1-(4-((5-bromo-4-((5-(dimethylphosphoryl)-2-ethyl-1-oxo-1,2-dihydrophthalazin-6-yl)amino)pyrimidin-2-yl)amino)-5-ethoxy-2-ethylphenyl)piperidin-4-yl)piperazin-1-yl)ethyl)-3-ethyl-7-fluoro-2-oxo-2,3-dihydro-1H-benzo[d]imidazol-1-yl)piperidine-2,6-dione] | 85.75% |
| 6.44 nM | 94.1% | 1.09 nM | CCc1ccc2c(P(C)(C)=O)c(Nc3nc(Nc4cc(C)c(N5CCC(N6CCN(C(=O)[C@@H]7CCN(c8cc(F)c([C@H]9CCC(=O)NC9=O)c(F)c8)C7)CC6)CC5)cc4OC)ncc3Br)ccc2n1 [Example 539, (R)-3-(4-((R)-3-(4-(1-(4-((5-bromo-4-((5-(dimethylphosphoryl)-2-ethylquinolin-6-yl)amino)pyrimidin-2-yl)amino)-5-methoxy-2-methylphenyl)piperidin-4-yl)piperazine-1-carbonyl)pyrrolidin-1-yl)-2,6-difluorophenyl)piperidine-2,6-dione] | 84.42% |
| 0.934 nM | 94% | 0.223 nM | CCc1cc(Nc2ncc(Br)c(Nc3ccc4nc(C)ccc4c3P(C)(C)=O)n2)c(OC)cc1N1CCC(N2CCN(CC3CN(c4ccc5c(c4)oc(=O)n5C4CCC(=O)NC4=O)C3)CC2)CC1 (stereo not shown) [Example 537, 3-(6-(3-((4-(1-(4-((5-bromo-4-((5-(dimethylphosphoryl)-2-methylquinolin-6-yl)amino)pyrimidin-2-yl)amino)-2-ethyl-5-methoxyphenyl)piperidin-4-yl)piperazin-1-yl)methyl)azetidin-1-yl)-2-oxobenzo[d]oxazol-3(2H)-yl)piperidine-2,6-dione] | 65.01% |
| 7.11 nM | 96.7% | 1.46 nM | CCOc1cc(N2CCC(N3CCN(CCCc4cc(Cl)cc5c4oc(=O)n5C4CCC(=O)NC4=O)CC3)CC2)c(CC)cc1Nc1ncc(Br)c(Nc2ccc3nc(CC)ccc3c2P(C)(C)=O)n1 (stereo not shown) [Example 726, 3-(7-(3-(4-(1-(4-((5-bromo-4-((5-(dimethylphosphoryl)-2-ethylquinolin-6-yl)amino)pyrimidin-2-yl)amino)-5-ethoxy-2-ethylphenyl)piperidin-4-yl)piperazin-1-yl)propyl)-5-chloro-2-oxobenzo[d]oxazol-3(2H)-yl)piperidine-2,6-dione] | 74.13% |
| 12.7 nM | 93.5% | 3.06 nM | CCc1cc(Nc2ncc(Br)c(Nc3ccc4nc(C)ccc4c3P(C)(C)=O)n2)c(OC)cc1N1CCC(N2CCN(CCC3CCN(c4cc(F)c(C5CCC(=O)NC5=O)c(F)c4)CC3)C(=O)C2)CC1 (stereo not shown) [Example 695, 3-(4-(4-(2-(4-(1-(4-((5-bromo-4-((5-(dimethylphosphoryl)-2-methylquinolin-6-yl)amino)pyrimidin-2-yl)amino)-2-ethyl-5-methoxyphenyl)piperidin-4-yl)-2-oxopiperazin-1-yl)ethyl)piperidin-1-yl)-2,6-difluorophenyl)piperidine-2,6-dione] | 68.81% |
| 16.2 nM | 89.6% | 2.39 nM | CCc1cnc2c(P(C)(C)=O)c(Nc3nc(Nc4cc(CC)c(N5CCC(N6CCN(C(=O)[C@@H]7CCN(c8cc(F)c([C@H]9CCC(=O)NC9=O)c(F)c8)C7)CC6)CC5)cc4OC)ncc3Br)ccc2n1 [Example 538, (R)-3-(4-((R)-3-(4-(1-(4-((5-bromo-4-((5-(dimethylphosphoryl)-2-ethylquinoxalin-6-yl)amino)pyrimidin-2-yl)amino)-2-ethyl-5-methoxyphenyl)piperidin-4-yl)piperazine-1-carbonyl)pyrrolidin-1-yl)-2,6-difluorophenyl)piperidine-2,6-dione] | 80.57% |
|  | 86.5% |  | CCc1cc(Nc2ncc(Br)c(Nc3ccc4nc(C)ccc4c3P(C)(C)=O)n2)c(OC)cc1N1CCC(N2CCN(C(=O)[C@@H]3CCN(c4ccc([C@H]5CCC(=O)NC5=O)cc4)C3)CC2)CC1 [Example 569, (R)-3-(4-((R)-3-(4-(1-(4-((5-bromo-4-((5-(dimethylphosphoryl)-2-methylquinolin-6-yl)amino)pyrimidin-2-yl)amino)-2-ethyl-5-methoxyphenyl)piperidin-4-yl)piperazine-1-carbonyl)pyrrolidin-1-yl)phenyl)piperidine-2,6-dione] |  |

| SMILES | DC50 [1] | Dmax [1] | DC50 [2] | Dmax (%) H1975 # 28 DTC [2] |
| --- | --- | --- | --- | --- |
| CCc1cc(Nc2ncc(Br)c(Nc3ccc4nc(C)ccc4c3P(C)(C)=O)n2)c(OC2CC2)cc1N1CCC(N2CCN(CCc3cc(F)c([C@H]4CCC(=O)NC4=O)c(F)c3)CC2)CC1 [Example 459, (R)-3-(4-(2-(4-(1-(4-((5-bromo-4-((5-(dimethylphosphoryl)-2-methylquinolin-6-yl)amino)pyrimidin-2-yl)amino)-5-cyclopropoxy-2-ethylphenyl)piperidin-4-yl)piperazin-1-yl)ethyl)-2,6-difluorophenyl)piperidine-2,6-dione] |  |  | 0.851 nM | 86.08% |
